Measurements from PMC6804253, “Predicting and Experimentally Validating Hot-Spot Residues at Protein–Protein Interfaces” (ACS Chemical Biology, 2019).
Where two headings read alike, the source gives them in different places.

Legend:
[1] = tested on: PPIs of the SKEMPI data set (by PDBID); conditions: ref SKEMPI, cited from earlier work; for sk_ddG_kJ (SKEMPI experimental ΔΔG, mutation to alanine) / sk_ddG_kJ / sk_ddG_kJ (SKEMPI experimental ΔΔG): single mutation to alanine; for sk_ddG_kJ (SKEMPI experimental ΔΔG, mutation to alanine): PPI given by PDBID, r_group DERKH; for sk_ddG_kJ: SKEMPI experimental ΔΔG of binding, complex by PDBID; for sk_ddG_kJ (SKEMPI experimental ΔΔG of binding, mutation to alanine): single mutation to alanine in the complex of the given PDBID
[2] = tested on: PPIs of the SKEMPI data set (by PDBID); test: SKEMPI experimental ΔΔG, single mutations to alanine; type: binding; conditions: for sk_class: class of the SKEMPI experimental ΔΔG
[3] = class by ΔΔG threshold 4.184 kJ/mol, ref SKEMPI
[4] = complex given by PDBID, mutation by mut_pdb
[5] = Positive / Neutral / Negative by ΔΔG threshold 4.184 kJ/mol, ref SKEMPI

Row | Substance | sk_ddG_kJ (SKEMPI experimental ΔΔG, mutation to alanine) ([1]; sheet sortedByGroup) [kJ] | sk_class (class of the SKEMPI experimental ΔΔG) [2, 3] | sk_ddG_kJ (SKEMPI experimental ΔΔG of binding, mutation to alanine) [1] [kJ] | sk_class (class of the SKEMPI experimental ΔΔG) [2, 5] | other results
1 | 1A4Y HB8A | 3.77 | Neutral (neutral (little effect) 4.184 kJ/mol < ΔΔG > −4.184 kJ/mol) |  |  | 
2 | 1A4Y HB13A | -1.42 | Neutral (neutral (little effect) 4.184 kJ/mol < ΔΔG > −4.184 kJ/mol) |  |  | 
3 | 1A4Y HB84A |  |  |  |  | sk_ddG_kJ [1]: 0.71 kJ; sk_class ([2]; ref SKEMPI): Neutral (neutral (little effect) 4.184 kJ/mol < ΔΔG > −4.184 kJ/mol)
4 | 1A4Y NB68A |  |  |  |  | sk_ddG_kJ (SKEMPI experimental ΔΔG) ([1]; complex given by PDBID, residue group SQNT): 0.50 kJ; sk_class [2]: Neutral (neutral (little effect) 4.184 kJ/mol < ΔΔG > −4.184 kJ/mol)
5 | 1A4Y QB12A |  |  |  |  | sk_ddG_kJ (SKEMPI experimental ΔΔG) [1, 4]: 1.26 kJ; sk_class [2]: Neutral (neutral (little effect) 4.184 kJ/mol < ΔΔG > −4.184 kJ/mol)
6 | 1A4Y RB5A | 9.67 | Positive (positive (a hot residue) ΔΔG ≥ 4.184 kJ/mol) |  |  | 
7 | 1A4Y RB31A | 1.05 | Neutral (neutral (little effect) 4.184 kJ/mol < ΔΔG > −4.184 kJ/mol) |  |  | 
8 | 1A4Y RB32A |  |  |  |  | sk_ddG_kJ [1]: 3.77 kJ; sk_class ([2]; ref SKEMPI): Neutral (neutral (little effect) 4.184 kJ/mol < ΔΔG > −4.184 kJ/mol)
9 | 1A4Y RB33A |  |  |  |  | sk_ddG_kJ [1]: 1.38 kJ; sk_class ([2]; ref SKEMPI): Neutral (neutral (little effect) 4.184 kJ/mol < ΔΔG > −4.184 kJ/mol)
10 | 1A4Y RB66A |  |  |  |  | sk_ddG_kJ [1]: 0.84 kJ; sk_class ([2]; ref SKEMPI): Neutral (neutral (little effect) 4.184 kJ/mol < ΔΔG > −4.184 kJ/mol)
11 | 1A4Y RB70A |  |  |  |  | sk_ddG_kJ [1]: -1.05 kJ; sk_class ([2]; ref SKEMPI): Neutral (neutral (little effect) 4.184 kJ/mol < ΔΔG > −4.184 kJ/mol)
12 | 1A4Y WB89A |  |  |  |  | sk_ddG_kJ (SKEMPI experimental ΔΔG) ([1]; sheet sortedByGroup, r_group FAMILYVW): 0.96 kJ; sk_class [2]: Neutral (neutral (little effect) 4.184 kJ/mol < ΔΔG > −4.184 kJ/mol)
13 | 1A22 CA182A |  |  |  |  | sk_ddG_kJ (SKEMPI experimental ΔΔG) [1, 4]: 4.23 kJ; sk_class [2]: Positive (positive (a hot residue) ΔΔG ≥ 4.184 kJ/mol)
14 | 1A22 DA171A | 3.35 | Neutral (neutral (little effect) 4.184 kJ/mol < ΔΔG > −4.184 kJ/mol) |  |  | 
15 | 1A22 EA66A | 1.80 | Neutral (neutral (little effect) 4.184 kJ/mol < ΔΔG > −4.184 kJ/mol) |  |  | 
16 | 1A22 EA174A | -3.77 | Neutral (neutral (little effect) 4.184 kJ/mol < ΔΔG > −4.184 kJ/mol) |  |  | 
17 | 1A22 EA186A | 0.00 | Neutral (neutral (little effect) 4.184 kJ/mol < ΔΔG > −4.184 kJ/mol) |  |  | 
18 | 1A22 FA10A |  |  | 4.35 | Positive (positive (a hot residue) ΔΔG ≥ 4.184 kJ/mol) | 
19 | 1A22 FA25A |  |  | -1.72 | Neutral (neutral (little effect) 4.184 kJ/mol < ΔΔG > −4.184 kJ/mol) | 
20 | 1A22 FA54A |  |  | 3.64 | Neutral (neutral (little effect) 4.184 kJ/mol < ΔΔG > −4.184 kJ/mol) | 
21 | 1A22 FA176A |  |  | 7.95 | Positive (positive (a hot residue) ΔΔG ≥ 4.184 kJ/mol) | 
22 | 1A22 FA191A |  |  | 0.79 | Neutral (neutral (little effect) 4.184 kJ/mol < ΔΔG > −4.184 kJ/mol) | 
23 | 1A22 HA21A | 0.84 | Neutral (neutral (little effect) 4.184 kJ/mol < ΔΔG > −4.184 kJ/mol) |  |  | 
24 | 1A22 IA58A |  |  | 6.86 | Positive (positive (a hot residue) ΔΔG ≥ 4.184 kJ/mol) | 
25 | 1A22 IA179A |  |  | 3.35 | Neutral (neutral (little effect) 4.184 kJ/mol < ΔΔG > −4.184 kJ/mol) | 
26 | 1A22 KA70A | 2.18 | Neutral (neutral (little effect) 4.184 kJ/mol < ΔΔG > −4.184 kJ/mol) |  |  | 
27 | 1A22 KA168A | -0.84 | Neutral (neutral (little effect) 4.184 kJ/mol < ΔΔG > −4.184 kJ/mol) |  |  | 
28 | 1A22 KA172A | 8.37 | Positive (positive (a hot residue) ΔΔG ≥ 4.184 kJ/mol) |  |  | 
29 | 1A22 LA9A |  |  | -0.17 | Neutral (neutral (little effect) 4.184 kJ/mol < ΔΔG > −4.184 kJ/mol) | 
30 | 1A22 LA15A |  |  | 0.63 | Neutral (neutral (little effect) 4.184 kJ/mol < ΔΔG > −4.184 kJ/mol) | 
